Earlier results as cited in patent US20190192552A1, “PHARMACEUTICAL COMPOSITIONS AND METHODS FOR TREATING KELOIDS, HY[…] AND WOUNDS, AND FOR PROVIDING IMPROVED SKIN CARE” (Cormedix Inc., priority 2017, published 2019).

Test system: Microbes
Conditions: microbes killed and resulting toxins inactivated

O=S1(=O)CCN(CN2CCS(=O)(=O)NC2)CN1 [taurolidine, 4,4′-methylene-bis(tetrahydro-1,2,4-thiadiazine)-1,1,1′,1′,-tetraoxide]
destruction time in vitro: approximately 30 minutes
